Measurements from patent US20200030288A1, “STATIN FOR PREVENTION/REDUCTION OF ISCHEMIA-RELATED DAMAGE” (Fundacio Institut De Recerca De L'Hospial De La Santa Creu …, priority 2017, published 2020).

Experiments:
RhoA = RhoA total and cytosolic/membrane fractions in ischemic myocardium by Western blot; type: in vivo, pigs
Method: After the ischemic period, the animals' hearts were arrested with potassium chloride and rapidly excised. […] In addition, the separation of the membrane and cytosolic fractions was performed by a modification of the lysis buffer protocol. Briefly, tissue powder was homogenized (1 mol/L NaCl, 20 mmol/L Tris pH 7.4, 1 mmol/L DTT and protease inhibitors) and centrifuged. The supernatant was collected (referred to as the cytosolic fraction) and pellets were resuspended, and the membrane proteins were extracted by incubation in 500 mmol/L Tris-HCl pH 7.4, 20% sodium dodecyl sulfate, 100 mmol/L sodium orthovanadate, and protease inhibitors. The extract was centrifuged and the supernatant was collected as the membrane fraction.
Protein concentration (in total myocardial tissue, in the cytoplasm fraction and in the membrane fraction) was quantified by the Pierce method. RhoA (Santa Cruz) was determined in total and cytosolic and membrane fractions of the ischemic cardiac tissue of all animals by Western Blot analysis. The intensity of the Western blot bands was detected with Chemi-Doc (Bio-Rad) and they were quantified with the Quantity one Software (Bio-Rad). Intensities are expressed in arbitrary units (AU).

MCP-1/CCL2 = MCP-1/CCL2 mRNA and protein expression in pig myocardium; type: in vivo, pigs
Method: The myocardium of pigs included in Example 1 and Example 2 was obtained, pulverized and processed with Tripure or lyses buffer for mRNA and protein isolation as detailed in Example 5 and Example 6, respectively. Both the mRNA levels and protein expression of MCP-1 were assessed. The threshold cycle (Ct) values were determined and normalized to the housekeeping gene 18 SrRNA in order to adjust for equal amounts of RNA whereas β-actin was used as protein loading control.

eNOS = eNOS activation (P-eNOS Ser1177 / total eNOS) in pig myocardium by Western blot; type: in vivo, pigs; details: ischemic myocardium
From the text: (P-eNOS) or activated eNOS.

AMPK = AMPK activation (P-AMPK Thr172 / total AMPK) in pig myocardium by Western blot; details: for levels of P-AMPK: vs controls
[1] = system: TLR4, TF and MCP-1 in PBMC; test: TLR4, TF and MCP-1 expression in circulating PBMC of ischemic pigs; type: in vivo
Method: Blood samples were also collected in EDTA at baseline (prior to ischemia) and after 90 min of ischemia from the femoral artery for PBMC isolation by the Ficoll method. To this end, 20 ml of blood were collected into EDTA tubes at three tested time-points (0, 30, and 90 min) in all animals. All blood samples were immediately subjected to Ficoll-paque Plus (Amersham Biosciences) density gradient centrifugation to isolate PBMCs. Samples were counted and then directly frozen in liquid nitrogen and stored at −80° C. until mRNA and protein isolation as described in Example 5 and Example 6. The mRNA expression level of the inflammatory markers related to innate immunity TLR4 (Toll-like receptor 4) and MCP-1, as well as […] (tissue factor) were determined by Real Time PCR analyses whereas protein expression of MCP-1 was also assessed. The threshold cycle (Ct) values were determined and normalized to the housekeeping gene 18SrRNA in order to adjust for equal amounts of RNA whereas Ponceau red was used for protein loading control.

rat model for ischemia = test: Rat model of myocardial infarction by coronary ligation: scar size 30 days after ischemia; type: in vivo, male SD rats; details: single dose 0.3 mg/kg 15 min after onset of ischemia; 30 days post-ischemia induction; vs vehicle-controls
Method: The study was performed in male SD rats (8-10 weeks old, weighing 250-300 g; Jackson Laboratory). MI was induced by LAD coronary artery ligation for 45 min. […] Afterwards hearts were carefully excised for morphometric assessment of infarct size.

[2] = system: hypercholesterolemic pigs with myocardial ischemia; test: Hypercholesterolemic pigs, 90 min LAD balloon occlusion: early cardiac damage markers; type: in vivo; details: 0.3 mg/kg i.v. at 15 min of ischemia
Method: To this end, 14 pigs were fed for 10 days a Western-type hypercholesterolemic diet [20%-saturated fat (beef tallow), 2%-cholesterol, 1%-cholic acid]. This hyperlipidemic diet contains 24.82% proteins, 64.20%of carbohydrates, 10.98% of fats and 16,834.7 kJ.
After this 10 day diet period animals underwent a closed-chest 90 min mid-left anterior descending (LAD) coronary balloon occlusion and the same experimental design described in Example 1.

[3] = system: swine model of myocardial ischemia; details: 0.3 mg/kg i.v. at 15 min of ischemia
From the text: Cardiac rhythm, arterial oxymetry, and arterial pressure were continuously monitored during the procedure. Just before starting the procedure a perfusion of amiodarone and lidocaine was initiated as prophylaxis for malignant left ventricular arrhythmias. All animals of the study were subjected to the same antiarrhythmic pharmacological approach allowing a direct comparison between the groups. By percutaneous approach and fluoroscopy guidance ischemia was induced by complete coronary balloon occlusion of the mid-left anterior descending coronary artery. Contrast angiographies were performed to ensure total coronary occlusion.
Control animals were given intravenous placebo (saline) at 15 min of ischemia. Blood samples (serum) for further assessment of biomarkers of cardiac damage were taken at baseline (i.e. before MI induction or at time=0 min), and at 30 min, 60 min and 90 min after MI induction (ischemia).
Upon taking the 90 min blood sample, the pigs were sacrificed without reperfusion to obtain myocardial tissue for molecular studies and histology.
The concentration of IMA (Ischemic Modified Albumin), CFABP (Cardiac Fatty Acid Binding Protein) and Myoglobin was determined by the respective pig ELISA kits in the blood samples taken 30 min, 60 min and 90 min after MI induction and compared to their baseline values (prior to ischemia induction). These proteins were chosen based on the rationale that they are early markers for cardiac damage assessment due to ischemia.

[4] = ischemic myocardium, vs non-treated pigs
[5] = prior (0 min) or post (90 min) ischemic induction
[6] = 30, 60 and 90 min after MI induction, vs controls
[7] = 90 min ischemic period, vs absence of treatment

Which results are given for `CC(C)c1c(C(=O)Nc2ccccc2)c(-c2ccccc2)c(-c2ccc(F)cc2)n1CC[C@@H](O)C[C@@H](O)CC(=O)O` [atorvastatin]?
total amount of RhoA protein in the ischemic myocardium (RhoA; 0.3 mg/kg i.v. at 15 min of ischemia, tissue at 90 min): not affected; RhoA activation in the ischemic myocardium (RhoA; single dose after the onset of ischemia, infarcted pigs): inhibits; MCP-1 mRNA expression (MCP-1/CCL2; [4]): significantly reduced; MCP-1 protein expression (MCP-1/CCL2; [4]): significantly reduced; MCP-1 expression (MCP-1/CCL2; non-ischemic myocardial tissue): No changes; ischemia-induced eNOS activation (P-eNOS/eNOS) (eNOS): did not further enhance; total protein content of AMPK (AMPK; entire heart): No changes; levels of P-AMPK (AMPK; ischemic myocardium): significantly increased; levels of P-AMPK (AMPK; non-ischemic cardiac tissue): No changes; ischemia-triggered increase in MCP-1 expression, gene level ([1]; PBMC): markedly attenuated; ischemia-triggered increase in MCP-1 expression, protein level ([1]; PBMC): markedly attenuated; TF PBMC expression (mRNA) [1, 5]: did not modify; TLR4 PBMC expression (mRNA) [1, 5]: did not modify; reduction in scar size (rat model for ischemia): 60%; CFABP ([2]; already at 30 min): significant reduction; IMA ([2]; already at 30 min): significant reduction; Myoglobin ([2]; already at 30 min): significant reduction; Percentage of reduction of CFABP ([2]; vs control): 60-75%; Percentage of reduction of IMA ([2]; vs control): 60-75%; Percentage of reduction of Myoglobin ([2]; vs control): 60-75%; IMA (Ischemic Modified Albumin) blood levels [3, 6]: significantly reduced; Myoglobin blood levels [3, 6]: significantly reduced; overall reduction of CFABP levels [3, 7]: more than 75%; overall reduction of IMA levels [3, 7]: more than 50%; overall reduction of myoglobin levels [3, 7]: more than 75%
